# Data reported in patent publication US20260015328A1, “ATM KINASE INHIBITORS” (Eberhard Karls Universität Tübingen, priority 2023, published 2026).
# Biological target: ATM (h) (Homo sapiens (Human), UniProt Q13315)
# Assay: ATM assay at Eurofins KinaseProfiler with adjusted concentration range (IC50^II)
# Type: biochemical
# Conditions: Table 13; assay variant (I or II) not given; read-out: IC50
# Chain of ATM (h) (Q13315 whole entry): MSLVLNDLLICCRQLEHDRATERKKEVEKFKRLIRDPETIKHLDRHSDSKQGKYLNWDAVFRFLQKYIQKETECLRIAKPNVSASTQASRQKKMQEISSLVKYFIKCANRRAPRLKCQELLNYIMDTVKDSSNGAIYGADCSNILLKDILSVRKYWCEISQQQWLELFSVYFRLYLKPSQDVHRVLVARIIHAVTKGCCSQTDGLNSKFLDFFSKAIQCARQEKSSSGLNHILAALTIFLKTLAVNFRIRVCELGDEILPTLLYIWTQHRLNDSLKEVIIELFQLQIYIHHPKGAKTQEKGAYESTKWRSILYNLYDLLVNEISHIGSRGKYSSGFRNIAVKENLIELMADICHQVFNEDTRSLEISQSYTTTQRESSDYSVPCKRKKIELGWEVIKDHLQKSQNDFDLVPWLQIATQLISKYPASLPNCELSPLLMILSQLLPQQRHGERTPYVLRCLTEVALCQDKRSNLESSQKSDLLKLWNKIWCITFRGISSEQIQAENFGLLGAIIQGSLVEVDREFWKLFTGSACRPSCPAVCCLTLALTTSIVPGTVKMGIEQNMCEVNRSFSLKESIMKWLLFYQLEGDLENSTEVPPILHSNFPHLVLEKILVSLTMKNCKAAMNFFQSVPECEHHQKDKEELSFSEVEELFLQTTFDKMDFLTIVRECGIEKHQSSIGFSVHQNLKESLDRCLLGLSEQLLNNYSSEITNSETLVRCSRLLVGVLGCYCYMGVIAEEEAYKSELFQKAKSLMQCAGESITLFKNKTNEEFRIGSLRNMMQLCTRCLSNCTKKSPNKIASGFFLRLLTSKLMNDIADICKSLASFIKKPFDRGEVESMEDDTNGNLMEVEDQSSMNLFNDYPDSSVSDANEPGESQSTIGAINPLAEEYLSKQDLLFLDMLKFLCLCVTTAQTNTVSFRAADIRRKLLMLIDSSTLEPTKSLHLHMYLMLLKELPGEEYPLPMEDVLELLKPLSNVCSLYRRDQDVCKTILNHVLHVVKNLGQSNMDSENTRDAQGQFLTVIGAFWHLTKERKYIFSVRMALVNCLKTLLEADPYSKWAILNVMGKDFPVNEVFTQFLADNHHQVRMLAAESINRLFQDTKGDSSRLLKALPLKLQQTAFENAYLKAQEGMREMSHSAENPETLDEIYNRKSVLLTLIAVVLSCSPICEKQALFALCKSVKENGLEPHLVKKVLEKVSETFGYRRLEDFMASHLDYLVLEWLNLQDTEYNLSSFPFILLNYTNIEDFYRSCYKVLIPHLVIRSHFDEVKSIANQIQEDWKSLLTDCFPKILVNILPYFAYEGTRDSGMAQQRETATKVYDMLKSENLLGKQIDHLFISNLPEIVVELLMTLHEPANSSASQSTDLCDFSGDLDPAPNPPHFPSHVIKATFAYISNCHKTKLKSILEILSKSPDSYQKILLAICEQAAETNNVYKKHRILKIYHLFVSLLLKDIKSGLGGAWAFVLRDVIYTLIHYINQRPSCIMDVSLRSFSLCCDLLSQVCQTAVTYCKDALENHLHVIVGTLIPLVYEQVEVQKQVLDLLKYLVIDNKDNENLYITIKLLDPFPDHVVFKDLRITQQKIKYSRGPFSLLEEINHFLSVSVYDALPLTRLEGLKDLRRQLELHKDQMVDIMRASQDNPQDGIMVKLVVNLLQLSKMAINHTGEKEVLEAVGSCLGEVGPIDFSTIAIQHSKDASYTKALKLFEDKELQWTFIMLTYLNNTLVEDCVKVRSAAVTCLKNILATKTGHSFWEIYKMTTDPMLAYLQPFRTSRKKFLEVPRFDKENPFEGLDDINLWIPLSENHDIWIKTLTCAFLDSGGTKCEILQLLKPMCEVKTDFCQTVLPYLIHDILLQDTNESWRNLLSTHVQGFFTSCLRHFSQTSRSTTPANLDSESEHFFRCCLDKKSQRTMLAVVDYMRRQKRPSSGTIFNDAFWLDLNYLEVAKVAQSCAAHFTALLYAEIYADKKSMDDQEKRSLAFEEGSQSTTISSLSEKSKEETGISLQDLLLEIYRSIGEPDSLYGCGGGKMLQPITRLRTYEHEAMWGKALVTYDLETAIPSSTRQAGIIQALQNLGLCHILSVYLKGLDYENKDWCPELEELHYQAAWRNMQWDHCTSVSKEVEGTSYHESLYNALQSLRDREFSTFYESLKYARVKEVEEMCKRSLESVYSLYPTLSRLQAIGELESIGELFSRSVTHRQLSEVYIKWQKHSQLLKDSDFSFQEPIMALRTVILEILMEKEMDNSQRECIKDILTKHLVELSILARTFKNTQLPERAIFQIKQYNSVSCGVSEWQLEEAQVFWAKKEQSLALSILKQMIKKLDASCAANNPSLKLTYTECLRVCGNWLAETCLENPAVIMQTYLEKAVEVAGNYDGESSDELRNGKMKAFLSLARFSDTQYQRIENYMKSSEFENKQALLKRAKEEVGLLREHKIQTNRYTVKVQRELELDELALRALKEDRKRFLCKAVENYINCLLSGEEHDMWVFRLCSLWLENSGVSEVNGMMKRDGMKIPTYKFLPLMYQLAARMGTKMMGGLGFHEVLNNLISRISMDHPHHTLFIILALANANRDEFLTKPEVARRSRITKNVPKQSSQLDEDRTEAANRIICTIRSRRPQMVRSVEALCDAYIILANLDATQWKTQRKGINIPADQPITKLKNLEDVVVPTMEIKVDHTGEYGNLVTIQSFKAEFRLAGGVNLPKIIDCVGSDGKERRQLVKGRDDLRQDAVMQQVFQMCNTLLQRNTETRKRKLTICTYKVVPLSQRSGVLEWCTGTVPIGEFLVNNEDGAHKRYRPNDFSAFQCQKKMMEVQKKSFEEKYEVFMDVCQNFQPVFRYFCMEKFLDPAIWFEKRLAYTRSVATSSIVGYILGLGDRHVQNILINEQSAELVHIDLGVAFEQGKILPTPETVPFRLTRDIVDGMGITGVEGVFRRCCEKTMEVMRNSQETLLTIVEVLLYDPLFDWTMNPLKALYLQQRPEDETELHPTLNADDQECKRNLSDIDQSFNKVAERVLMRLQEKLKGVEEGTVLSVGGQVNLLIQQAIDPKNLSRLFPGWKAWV
row,IC50 [nM],SMILES
1,386,"COc1cc2ncn(-c3ccc4c(c3)N(S(C)(=O)=O)CC4)c2cc1-c1ccc(OCCCN(C)C)nc1 [TD-630, 3-((5-(5-methoxy-1-(1-(methylsulfonyl)indolin-6-yl)-1H-benzo[d]imidazol-6-yl)pyridin-2-yl)oxy)-N,N-dimethylpropan-1-amine]"

# Same assay, conditions: Table 13; read-out: IC50 [nM], IC50^II
row,IC50 [nM],SMILES
1,106,"CS(=O)(=O)N1CCc2ccc(-n3cnc4ccc(-c5ccc(CO)cc5)cc43)cc21 [TD-587, (4-(1-(1-(methylsulfonyl)indolin-6-yl)-1H-benzo[d]imidazol-6-yl)phenyl)methanol]"
2,2,"CN(C)CCc1nc2cc(-c3ccc4ncn(-c5ccc6c(c5)N(S(C)(=O)=O)CC6)c4c3)ccc2[nH]1 [TD-607, N,N-dimethyl-2-(3′-(1-(methylsulfonyl)indolin-6-yl)-1H,3′H-[5,5′-bibenzo[d]imidazol]-2-yl)ethan-1-amine]"
3,237,"CN(C)CCCn1cc(-c2ccc3ncn(-c4ccc5c(c4)N(S(C)(=O)=O)CC5)c3n2)cn1 [TD-623, N,N-dimethyl-3-(4-(3-(1-(methylsulfonyl)indolin-6-yl)-3H-imidazo[4,5-b]pyridin-5-yl)-1H-pyrazol-1-yl)propan-1-amine]"
4,113,"COc1cc2ncn(-c3ccc4c(c3)N(S(C)(=O)=O)CC4)c2cc1-c1ccc(NC(=O)NCCN(C)C)cc1 [TD-634, 1-(2-(dimethylamino)ethyl)-3-(4-(5-methoxy-1-(1-(methylsulfonyl)indolin-6-yl)-1H-benzo[d]imidazol-6-yl)phenyl)urea]"

# Biological target: isolated ATM kinase (Homo sapiens (Human), UniProt Q13315)
# Assay: FRET-based ATM activity assay at Reaction Biology Corp. (IC50^I)
# Type: biochemical
# Conditions: Table 13; read-out: IC50 [nM], IC50^I
# Chain of isolated ATM kinase (Q13315 whole entry): as above
row,IC50 [nM],SMILES
1,60,"COc1cc(-n2cnc3ccc(-c4ccc(NC(=O)NCCN(C)C)cc4)cc32)cc(OC)c1OC [TD-309, 1-(2-(dimethylamino)ethyl)-3-(4-(1-(3,4,5-trimethoxyphenyl)-1H-benzo[d]imidazol-6-yl)phenyl)urea]"
2,10,"COCC(=O)Nc1ccc(-n2cnc3ccc(-c4ccc(NC(=O)NCCN(C)C)cc4)cc32)cc1 [TD-339, N-(4-(6-(4-(3-(2-(dimethylamino)ethyl)ureido)phenyl)-1H-benzo[d]imidazol-1-yl)phenyl)-2-methoxyacetamide]"
3,7,"COCC(=O)Nc1cccc(-n2cnc3ccc(-c4ccc(NC(=O)NCCN(C)C)cc4)cc32)c1 [TD-344, N-(3-(6-(4-(3-(2-(dimethylamino)ethyl)ureido)phenyl)-1H-benzo[d]imidazol-1-yl)phenyl)-2-methoxyacetamide]"
4,343,"CN1CCN2C(=O)N(c3ccc(-c4ccc5ncn(-c6cccc(NS(C)(=O)=O)c6)c5c4)cc3)CC2C1 (centres unmarked) [TD-448, N-(3-(6-(4-(7-methyl-3-oxohexahydroimidazo[1,5-a]pyrazin-2(3H)-yl)phenyl)-1H-benzo[d]imidazol-1-yl)phenyl)methanesulfonamide]"
5,23,"CN(C)CCSc1ccc(-c2ccc3ncn(-c4cccc(NS(C)(=O)=O)c4)c3c2)cc1 [TD-472, N-(3-(6-(4-((2-(dimethylamino)ethyl)thio)phenyl)-1H-benzo[d]imidazol-1-yl)phenyl)methanesulfonamide]"
6,16,"CN(C)CCNC(=O)Nc1ccc(-c2ccc3ncn(-c4ccc5c(c4)CCCC5)c3c2)cc1 [TD-547, 1-(2-(dimethylamino)ethyl)-3-(4-(1-(5,6,7,8-tetrahydronaphthalen-2-yl)-1H-benzo[d]imidazol-6-yl)phenyl)urea]"
